Measured values published in ChEMBL document CHEMBL1201862, “PubChem BioAssay data set” (2004).
The source made the active and inactive calls.

Columns and labels:
Estrogen receptor = molecular target: T1, Estrogen receptor (Homo sapiens, UniProt P03372);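 also: potency for inhibiting coactivator peptide recruitment to the receptor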
T1 sequence (P03372 whole entry): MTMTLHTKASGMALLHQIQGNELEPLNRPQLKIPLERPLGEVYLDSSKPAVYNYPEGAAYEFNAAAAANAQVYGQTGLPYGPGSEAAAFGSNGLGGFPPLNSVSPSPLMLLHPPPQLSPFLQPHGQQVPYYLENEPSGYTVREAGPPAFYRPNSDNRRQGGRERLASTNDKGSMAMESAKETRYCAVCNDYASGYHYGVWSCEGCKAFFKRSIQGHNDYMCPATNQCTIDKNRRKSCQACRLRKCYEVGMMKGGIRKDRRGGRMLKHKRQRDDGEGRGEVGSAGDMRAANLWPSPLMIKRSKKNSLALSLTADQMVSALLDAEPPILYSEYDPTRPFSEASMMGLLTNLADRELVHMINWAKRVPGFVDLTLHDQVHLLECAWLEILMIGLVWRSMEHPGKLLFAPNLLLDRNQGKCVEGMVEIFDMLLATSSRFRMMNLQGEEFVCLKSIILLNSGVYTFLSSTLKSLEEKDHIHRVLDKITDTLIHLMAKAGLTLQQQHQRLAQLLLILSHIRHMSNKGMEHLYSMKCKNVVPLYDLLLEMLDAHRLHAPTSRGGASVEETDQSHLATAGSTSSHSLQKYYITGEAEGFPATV

Estrogen receptor beta [1] = molecular target: T2, Estrogen receptor beta (Homo sapiens, UniProt Q92731);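 also: recombinant ER-beta bound to coactivator SRC1 peptide in presence of estradiol agonist; inhibitors block coactivator peptide binding and lower the FRET signal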
Estrogen receptor beta [2] = molecular target: T2, Estrogen receptor beta; experiment: blockers of SRC-3 recruitment to ERβ – biochemical, ELISA, streptavidin-HRP readout, orthogonal assay, confirmation (AID 1060)
HeLa = experiment: ATP-based viability loss in HeLa cells – cell-based, CellTiter-Glo luminescence, cherry-pick samples, cytotoxicity control for MITF activator project, dose response (AID 540259); assay type: functional; settings: Homo sapiens
[3] = molecular target: T3, Apoptotic protease-activating factor 1 (Homo sapiens, UniProt O14727); assay type: functional
T3 sequence (O14727 whole entry): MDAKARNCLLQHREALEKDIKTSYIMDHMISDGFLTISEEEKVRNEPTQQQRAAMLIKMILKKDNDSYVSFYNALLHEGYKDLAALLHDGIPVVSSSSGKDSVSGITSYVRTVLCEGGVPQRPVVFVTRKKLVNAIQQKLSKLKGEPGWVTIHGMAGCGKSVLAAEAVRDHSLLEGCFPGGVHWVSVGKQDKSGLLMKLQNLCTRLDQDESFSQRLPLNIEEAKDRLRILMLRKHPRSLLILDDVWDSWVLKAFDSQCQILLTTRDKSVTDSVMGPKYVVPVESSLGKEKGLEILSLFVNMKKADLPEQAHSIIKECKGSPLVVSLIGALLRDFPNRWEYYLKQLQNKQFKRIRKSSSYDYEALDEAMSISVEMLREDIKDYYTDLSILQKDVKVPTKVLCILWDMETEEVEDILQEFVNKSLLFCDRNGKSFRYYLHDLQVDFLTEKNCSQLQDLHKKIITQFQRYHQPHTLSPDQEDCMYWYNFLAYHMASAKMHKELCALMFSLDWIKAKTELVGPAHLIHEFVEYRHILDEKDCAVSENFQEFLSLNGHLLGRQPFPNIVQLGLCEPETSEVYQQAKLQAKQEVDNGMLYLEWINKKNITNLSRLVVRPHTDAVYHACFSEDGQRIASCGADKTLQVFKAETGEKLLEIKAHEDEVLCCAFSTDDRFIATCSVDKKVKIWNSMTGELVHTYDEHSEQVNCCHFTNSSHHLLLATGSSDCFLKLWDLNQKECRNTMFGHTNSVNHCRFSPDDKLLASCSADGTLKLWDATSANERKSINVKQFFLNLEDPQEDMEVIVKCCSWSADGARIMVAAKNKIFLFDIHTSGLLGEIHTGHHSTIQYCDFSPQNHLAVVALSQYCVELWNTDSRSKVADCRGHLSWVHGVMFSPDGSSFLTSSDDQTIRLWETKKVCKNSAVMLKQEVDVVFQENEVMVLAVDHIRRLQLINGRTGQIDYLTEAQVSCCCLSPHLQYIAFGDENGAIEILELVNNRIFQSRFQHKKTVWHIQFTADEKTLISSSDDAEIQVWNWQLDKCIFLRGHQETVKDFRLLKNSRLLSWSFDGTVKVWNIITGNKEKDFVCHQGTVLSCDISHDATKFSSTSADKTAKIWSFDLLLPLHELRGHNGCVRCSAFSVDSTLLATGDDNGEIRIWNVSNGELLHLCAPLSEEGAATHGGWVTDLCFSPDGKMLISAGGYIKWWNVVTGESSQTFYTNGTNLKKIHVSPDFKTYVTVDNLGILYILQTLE

[4] = molecular target: T4, RNA-binding protein pos-1 (Caenorhabditis elegans, UniProt G5EF15); experiment: disruptors of C. elegans POS-1 RNA interaction – biochemical, fluorescence polarization, dose response (AID 1964);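 also: purified POS-1 fused to maltose binding protein made in E. coli; potency of compounds blocking POS-1 binding to fluorescent RNA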
T4 sequence (G5EF15 whole entry): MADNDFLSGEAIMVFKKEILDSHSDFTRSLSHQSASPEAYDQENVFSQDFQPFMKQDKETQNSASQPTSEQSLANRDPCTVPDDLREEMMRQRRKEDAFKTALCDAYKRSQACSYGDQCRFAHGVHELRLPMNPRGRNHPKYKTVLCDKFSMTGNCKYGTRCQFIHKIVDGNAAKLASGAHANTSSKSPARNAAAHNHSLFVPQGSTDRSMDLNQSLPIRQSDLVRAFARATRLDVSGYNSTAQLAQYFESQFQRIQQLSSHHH

[5] = test system: Streptococcus sp. 'group A'; experiment: Streptococcus pyogenes SK(-)GAS viability under kanamycin – luminescence, BacTiterGlo, confirmation, counter-screen for streptokinase expression inhibitor project, dose response (AID 1900); assay type: functional, organism-based
[6] = molecular target: T5, Zinc finger protein mex-5 (Caenorhabditis elegans, UniProt Q9XUB2); experiment: potency of MEX-5 RNA-binding blockers – biochemical, C. elegans, fluorescence polarization, dose response (AID 1960)
T5 sequence (Q9XUB2 whole entry): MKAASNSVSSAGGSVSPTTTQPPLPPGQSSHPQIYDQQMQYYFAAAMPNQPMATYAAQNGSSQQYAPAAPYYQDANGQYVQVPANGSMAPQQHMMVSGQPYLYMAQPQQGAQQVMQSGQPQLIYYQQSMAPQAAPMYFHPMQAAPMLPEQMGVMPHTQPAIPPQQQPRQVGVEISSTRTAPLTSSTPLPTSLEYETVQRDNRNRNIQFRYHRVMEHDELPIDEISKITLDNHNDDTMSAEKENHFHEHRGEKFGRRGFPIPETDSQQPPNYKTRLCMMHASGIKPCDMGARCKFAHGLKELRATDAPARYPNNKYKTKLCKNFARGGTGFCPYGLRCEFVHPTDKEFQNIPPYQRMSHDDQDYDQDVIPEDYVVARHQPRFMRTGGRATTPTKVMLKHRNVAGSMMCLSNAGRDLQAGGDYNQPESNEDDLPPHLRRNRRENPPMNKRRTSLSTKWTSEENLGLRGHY

Streptococcus = experiment: GAS UMAA2166 growth inhibition – luminescence, BacTiterGlo, counter-screen for streptokinase expression inhibitor project, dose response (AID 1915); assay type: functional, organism-based;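 also: potency for reduction of bacterial viability or growth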
[7] = molecular target: T6, Voltage-gated N-type calcium channel alpha-1B subunit/Amyloid beta A4 precursor protein-binding family A member 1 (Homo sapiens, UniProt Q00975+Q02410); assay type: protein assay
Streptokinase A = molecular target: T7, Streptokinase A (Streptococcus pyogenes serotype M1, UniProt P10520); experiment: viability-normalized secreted streptokinase activity reduction – plasminogen activation absorbance, OD405, dose response (AID 1914); assay type: functional, Streptococcus pyogenes M1 GAS;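 also: secreted streptokinase activity via plasminogen activation per viability signal from cell pellet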
T7 sequence (P10520 whole entry): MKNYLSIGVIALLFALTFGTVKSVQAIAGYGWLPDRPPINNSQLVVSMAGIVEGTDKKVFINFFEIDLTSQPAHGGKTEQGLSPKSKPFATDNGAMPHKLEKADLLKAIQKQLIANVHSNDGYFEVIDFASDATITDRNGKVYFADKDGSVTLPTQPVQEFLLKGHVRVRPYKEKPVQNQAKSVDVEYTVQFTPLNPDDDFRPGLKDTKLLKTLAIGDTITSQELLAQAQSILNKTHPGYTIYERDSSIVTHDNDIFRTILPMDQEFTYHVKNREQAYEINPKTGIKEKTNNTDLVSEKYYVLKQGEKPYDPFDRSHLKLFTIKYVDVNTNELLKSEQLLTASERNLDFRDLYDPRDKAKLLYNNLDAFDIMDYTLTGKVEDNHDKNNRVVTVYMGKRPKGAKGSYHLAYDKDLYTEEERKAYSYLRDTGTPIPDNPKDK

[8] = molecular target: T6, Voltage-gated N-type calcium channel alpha-1B subunit/Amyloid beta A4 precursor protein-binding family A member 1; assay type: protein assay; remark: listed apart in the source
[9] = molecular target: Voltage-dependent T-type calcium channel subunit alpha-1H (Homo sapiens, UniProt O95180); assay type: functional;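 also: channel activity triggered by adding a high calcium stimulation buffer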
INS1 = experiment: INS-1E survival protection against cytokine death – cell-based, luminescence, retest, dose response (AID 449756); assay type: functional; settings: Rattus norvegicus;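 also: cell death triggered by IL-1 beta plus TNF-alpha plus IFN-gamma mixture; protective hits raise ATP signal compared with cytokine alone wells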
Vero = experiment: cells; assay type: functional; settings: Chlorocebus sabaeus

T2 sequence (Q92731 whole entry): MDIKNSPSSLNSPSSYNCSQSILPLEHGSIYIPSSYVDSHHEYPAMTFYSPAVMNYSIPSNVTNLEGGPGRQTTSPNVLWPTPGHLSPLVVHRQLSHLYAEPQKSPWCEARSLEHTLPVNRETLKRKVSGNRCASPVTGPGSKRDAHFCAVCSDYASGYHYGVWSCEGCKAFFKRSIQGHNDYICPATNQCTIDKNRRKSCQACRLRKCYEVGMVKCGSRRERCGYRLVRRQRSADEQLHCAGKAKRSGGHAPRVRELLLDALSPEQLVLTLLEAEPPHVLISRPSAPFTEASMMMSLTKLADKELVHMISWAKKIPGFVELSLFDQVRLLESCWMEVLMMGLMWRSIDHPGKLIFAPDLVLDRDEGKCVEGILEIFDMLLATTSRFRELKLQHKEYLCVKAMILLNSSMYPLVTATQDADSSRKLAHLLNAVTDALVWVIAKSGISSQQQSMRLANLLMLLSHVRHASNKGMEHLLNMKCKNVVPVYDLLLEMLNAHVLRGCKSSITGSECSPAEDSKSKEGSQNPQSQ
T6 sequence (Q00975 whole entry): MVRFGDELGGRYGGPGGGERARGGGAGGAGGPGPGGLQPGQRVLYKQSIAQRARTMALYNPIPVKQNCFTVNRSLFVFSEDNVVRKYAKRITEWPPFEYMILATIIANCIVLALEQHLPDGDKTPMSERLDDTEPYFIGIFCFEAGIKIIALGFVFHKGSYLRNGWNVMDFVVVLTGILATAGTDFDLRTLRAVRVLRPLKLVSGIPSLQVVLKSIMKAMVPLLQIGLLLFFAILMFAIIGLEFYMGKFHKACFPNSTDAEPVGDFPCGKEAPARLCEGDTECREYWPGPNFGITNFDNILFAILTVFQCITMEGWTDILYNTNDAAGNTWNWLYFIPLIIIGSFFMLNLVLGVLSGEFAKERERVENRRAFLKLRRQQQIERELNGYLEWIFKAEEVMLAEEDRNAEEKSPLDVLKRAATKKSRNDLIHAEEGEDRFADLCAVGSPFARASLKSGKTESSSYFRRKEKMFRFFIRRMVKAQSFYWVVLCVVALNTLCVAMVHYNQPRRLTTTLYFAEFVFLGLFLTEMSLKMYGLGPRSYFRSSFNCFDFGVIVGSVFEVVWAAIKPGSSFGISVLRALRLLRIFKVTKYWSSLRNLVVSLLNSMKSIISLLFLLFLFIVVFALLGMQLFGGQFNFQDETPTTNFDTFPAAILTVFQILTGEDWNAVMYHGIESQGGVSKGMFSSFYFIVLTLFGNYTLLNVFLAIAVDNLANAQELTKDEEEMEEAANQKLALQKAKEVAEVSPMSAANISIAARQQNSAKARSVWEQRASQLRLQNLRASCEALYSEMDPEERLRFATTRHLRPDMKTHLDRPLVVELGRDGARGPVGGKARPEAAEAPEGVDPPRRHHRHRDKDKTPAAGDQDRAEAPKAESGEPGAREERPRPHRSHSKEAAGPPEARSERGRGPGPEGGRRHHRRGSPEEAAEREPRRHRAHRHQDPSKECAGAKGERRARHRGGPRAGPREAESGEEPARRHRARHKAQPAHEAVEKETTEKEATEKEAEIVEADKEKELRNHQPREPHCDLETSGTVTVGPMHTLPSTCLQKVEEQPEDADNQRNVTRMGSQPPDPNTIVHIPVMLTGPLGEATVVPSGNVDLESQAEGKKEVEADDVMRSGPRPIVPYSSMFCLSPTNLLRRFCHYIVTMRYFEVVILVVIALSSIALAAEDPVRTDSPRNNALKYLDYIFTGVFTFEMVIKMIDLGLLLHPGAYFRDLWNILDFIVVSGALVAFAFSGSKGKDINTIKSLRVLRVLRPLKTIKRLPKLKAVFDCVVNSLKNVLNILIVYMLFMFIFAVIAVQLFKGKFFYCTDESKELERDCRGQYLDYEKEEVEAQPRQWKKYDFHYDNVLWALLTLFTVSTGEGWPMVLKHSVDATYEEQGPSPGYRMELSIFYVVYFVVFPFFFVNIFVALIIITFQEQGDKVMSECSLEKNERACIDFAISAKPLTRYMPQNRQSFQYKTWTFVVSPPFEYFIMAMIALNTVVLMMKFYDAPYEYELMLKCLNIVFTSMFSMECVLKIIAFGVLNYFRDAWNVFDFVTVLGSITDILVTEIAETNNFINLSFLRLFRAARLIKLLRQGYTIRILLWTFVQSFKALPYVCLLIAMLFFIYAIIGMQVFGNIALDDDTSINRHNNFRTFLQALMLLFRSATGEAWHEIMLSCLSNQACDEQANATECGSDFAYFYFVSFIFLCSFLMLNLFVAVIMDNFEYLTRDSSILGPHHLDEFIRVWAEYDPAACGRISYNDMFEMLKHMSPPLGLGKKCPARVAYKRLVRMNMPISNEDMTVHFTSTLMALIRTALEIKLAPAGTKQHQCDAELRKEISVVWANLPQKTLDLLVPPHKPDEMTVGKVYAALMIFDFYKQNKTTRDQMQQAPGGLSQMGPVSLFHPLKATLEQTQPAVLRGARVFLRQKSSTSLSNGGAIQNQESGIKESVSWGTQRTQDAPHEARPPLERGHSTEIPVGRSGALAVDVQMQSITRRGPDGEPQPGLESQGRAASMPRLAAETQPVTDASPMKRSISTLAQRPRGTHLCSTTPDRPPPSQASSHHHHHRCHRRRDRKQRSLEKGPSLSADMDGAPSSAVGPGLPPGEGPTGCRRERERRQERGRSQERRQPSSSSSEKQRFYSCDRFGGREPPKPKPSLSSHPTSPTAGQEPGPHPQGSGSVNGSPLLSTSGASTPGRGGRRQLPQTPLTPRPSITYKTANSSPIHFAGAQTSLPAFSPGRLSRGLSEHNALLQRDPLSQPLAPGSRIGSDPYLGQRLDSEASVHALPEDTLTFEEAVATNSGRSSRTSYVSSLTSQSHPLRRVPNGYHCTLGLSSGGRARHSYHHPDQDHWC
T6 sequence (Q02410 whole entry): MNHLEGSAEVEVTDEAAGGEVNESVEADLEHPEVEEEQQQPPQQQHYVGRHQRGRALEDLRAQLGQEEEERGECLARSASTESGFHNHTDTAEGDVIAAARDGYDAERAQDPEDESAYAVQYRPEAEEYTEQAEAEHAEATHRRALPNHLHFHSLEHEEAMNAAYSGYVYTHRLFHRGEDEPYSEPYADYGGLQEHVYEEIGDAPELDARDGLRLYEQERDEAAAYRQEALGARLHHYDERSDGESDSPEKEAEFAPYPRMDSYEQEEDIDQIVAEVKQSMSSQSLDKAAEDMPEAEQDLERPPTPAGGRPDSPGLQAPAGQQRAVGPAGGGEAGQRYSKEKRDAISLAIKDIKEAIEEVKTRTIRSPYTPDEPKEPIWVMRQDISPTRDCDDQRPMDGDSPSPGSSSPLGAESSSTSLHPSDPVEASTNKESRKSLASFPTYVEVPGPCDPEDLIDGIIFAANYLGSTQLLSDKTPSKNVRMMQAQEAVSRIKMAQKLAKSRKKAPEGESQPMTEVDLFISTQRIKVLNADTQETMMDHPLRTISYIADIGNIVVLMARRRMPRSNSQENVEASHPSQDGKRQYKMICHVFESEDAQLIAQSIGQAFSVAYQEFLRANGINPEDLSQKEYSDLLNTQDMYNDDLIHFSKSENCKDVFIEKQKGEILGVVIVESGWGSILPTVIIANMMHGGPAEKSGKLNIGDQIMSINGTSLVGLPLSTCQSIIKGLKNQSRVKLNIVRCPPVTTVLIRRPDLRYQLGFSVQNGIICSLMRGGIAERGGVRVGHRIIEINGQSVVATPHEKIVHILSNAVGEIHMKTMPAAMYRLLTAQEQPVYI

Compound	IC50 (Estrogen receptor)	AC50 (HeLa)	IC50 [3]	EC50 [5]	EC50 (Streptococcus)	further results
Cc1snc2sc(C(=O)c3ccc(Br)cc3)c(N)c12	28.2 µM (active)	67.4 µM (active)				IC50 (Estrogen receptor beta [1]): > 50 µM (not active); IC50 (Estrogen receptor beta [2]): 0.0857 µM (not active)
COc1ccc(-n2nc(C(=O)NCC(=O)NC3CCCC(C)C3C)c3ccccc3c2=O)c(OC)c1 (stereo not given)			14.5 µM (active)			
COc1ccc(/C=C/c2ccc3c(Br)ccc(O)c3n2)cc1		35.9 µM (active)		0.923 µM (active)	1.66 µM (active)	EC50 [4]: 117 µM (active); EC50 [6]: > 300 µM (not active)
CCCCCCc1cc2cc(-c3nnc(-c4ccccc4)o3)c(=O)oc2cc1O	34.9 µM (not active)		11.7 µM (active)	6.12 µM (active)	38.7 µM (inconclusive)	IC50 [7]: 9.32 µM (active); EC50 (Streptokinase A): > 150 µM (not active); IC50 [8]: > 50 µM (inactive); EC50 [9]: 3 µM (active); AC50 (INS1): 7.4 µM (active); CC50 (Vero): 11.3 µM (active)
